According to US12497396B2, “Nitrogen-containing heterocyclic derivatives, method therefor and application therefor as inhibitors of KRAS G12C for the treatment of cancers” (SHANGHAI HANSOH BIOMEDICAL CO., LTD., priority 2019, dated 2025):

Tests used:
[1] = Plasma stability, dog plasma; type: in vitro ADME; details: dog plasma, 37° C.
Procedure: (§1) Animal or human whole blood was collected, then the blood was put into a test tube containing anticoagulant, centrifuged at 3500 rpm for 10 min, and the upper layer of pale yellow plasma was collected. • 2), 10 μM of tested compound (m/M/V=C)
(§2) The compound was weighed, the stock solution was prepared with DMSO and the working solution was prepared with 100 mM phosphate buffer. • 3), 10 μM of positive control (1) Propantheline (Propantheline Mr=449.4 Da)
(§3) • 1) 285 μL of plasma and 15 μL of 10 μM compound (tested compound) were added in turn in a 96-well plate, and incubated at 37° C. • 2) 40 μL was taken out at 0, 15, 30, 60, 90, 120 min, respectively, and 160 μL of acetonitrile termination solution containing internal standard was added. • 3) After centrifugation (3500 rpm, 10 min), 50 μL of supernatant was taken out, and then diluted with 50 μL DDH2O and injected to LC-MS/MS.
(§4) • Instrument: Shimadzu LC-20 AD • Chromatographic column: phenomenex Gemiu® C18 (50*4.6 mm, 5 μM particle size); • mobile phase: A: acetonitrile, B: 0.1% formic acid solution […], 2.0-2.1 min: 90% A→5% A; flow rate: 0.8 mL/min; running time: 5.0 min; injection volume: 5 μL.
(§5) • Instrument: API4000 Liquid Chromatography-Mass Spectrometry, AB, USA; • the ion source was electrospray ionization source (ESI); • the temperature of dry gas (N2) was 500° C.; • electrospray voltage was 5500V; • the detection method was positive ion detection; • the scanning mode was selective response monitoring (MRM). • the scanning time was 0.1 s.

[2] = Plasma stability, rat plasma; type: in vitro ADME; details: rat plasma, 37° C.
Procedure: as §1, §2, §3, §4, §5

[3] = tested on: human lung cancer NCI-H358 cell xenograft; assay: In vivo pharmacodynamics on human lung cancer NCI-H358 cell xenograft tumor model; set-up: species or system BALB/c nude mice
Procedure: • BALB/c nude mice, 6-8 weeks old, female, purchased from Shanghai Xipuer-Bikai Experimental Animal Co., Ltd. 6.3.2 Cell Culture and Cell Suspension Preparation • 1) MiaPaca-2 cells were taken out from the cell bank and resuscitated with DMEM medium (DMEM+10% FBS), the resuscitated cells were placed in a cell culture flask (labeled with cell type, date, name of cultured person, etc.) and cultured in a CO2 incubator (incubator temperature was 37° C., CO2 concentration was 5%) (the method of resuscitating NCI-H358 cells was the same as MiaPaca-2 cells in test embodiment 5, and the culture medium was changed to RPMI-1640 medium). • 2) Passage was conducted every three to five days, and the cells was continued to be cultured in CO2 incubator after passage. The process was repeated until the cell count meets the in vivo pharmacodynamic requirements. • 3) MiaPaca-2 cells were collected and counted by automatic cell counter, according to the counting results, the cells were re-suspended with PBS and Matrigel (ratio was 1:1) to make cell suspension (cell density was 5×10^7/mL), then placed in a ice box for use (NCI-H358 cells were re-suspended with PBS without adding Matrigel, cell density was 1×10^8/mL). 6.3.3 Sample Preparation: • 1) Solvent: solvent (0.5% CMC-Na+1% Tween 80), storage condition: 4° C.
0.5 g of CMC-Na was weighted, dissolved in ddH2O, then 1.0 mL of Tween 80 was added and the mixture was stirred to mix well, and the volume was finally set to 100 mL. • 2) Compound to be tested (10 mg/kg) was prepared:
8.42 mg of AMG510 compound was weighted, 8.260 mL of solvent was added, a uniform solution was obtained by ultrasound, vortexing and stirring.
7.81 mg of embodiment compound 165-1 was weighted, 7.654 mL of solvent was added, a uniform solution was obtained by ultrasound, vortexing and stirring.
• 1) Before inoculation, nude mice were labeled with disposable universal ear tags of rats and mice; • 2) when inoculating, the cell suspension was mixed well, 0.1-1 mL cell suspension was extracted with a 1 mL syringe, bubbles were removed, and then the syringe was put on an ice bag for later use; • 3) the nude mice was held with left hand, the right back of nude mice near the right shoulder (inoculation site) was disinfected with 75% alcohol, and inoculation was started after 30 seconds; • 4) the experimental nude mice were inoculated in turn (each mouse was inoculated with 0.1 mL of cell suspension); 6.3.4 Tumor-Bearing Mouse were Measured, Grouped, and Administered: • 1) According to the tumor growth, the tumor was measured on the 18th day after inoculation, and the tumor size was calculated. tumor volume (mm^3)=length (mm)×width (mm)×width (mm)/2 Tumor volume calculation: • 2) The tumor-bearing mice were grouped according to their body weight and tumor size using a randomized grouping method. • 3) According to the grouping results, the administration of the test drug was started (administration method: oral administration; administration dose: 10 mg/kg; administration volume: 10 mL/kg; administration frequency: once a day; administration period: 21 days; solvents: 0.5% CMC/1% Tween 80). • 4) The tumor was measured and weighed twice a week after the test drug was started to be given. • 5) After the experiment, all animals were euthanized. • 6) Data was processed with software such as Excel. […]

in vitro = in vitro ADME
Procedure: as §1, §2, §3, §4, §5

human KRAS G12C protein = target: T1, human KRAS G12C protein (Homo sapiens, UniProt P01116, G12C); assay: Thermal shift: melting temperature of KRAS G12C protein; type: binding
T1 construct: purchased Beijing SinoBiological Co., Ltd. 12259-H07E2
Procedure: A solution containing […] (pH 7.5), 1 mM DTT, 5×SYPRO Orange and 150 mM NaCl was prepared as the experimental buffer, and a final concentration of 5.37 μM human KRAS G12C protein was added thereto. […] After incubating at room temperature in the dark for 1 hour, the PCR tube was put into the PCR instrument, QuantStudio Software v1.3 was opened, and the melting temperature of KRAS G12C protein in different treatment groups was detected by melt curve function (heating from 25° C. to 95° C., 0.03° C./s). The experimental data file of PCR instrument was imported into thermal shift software, and the melting temperature (Tm) of each treatment group was obtained, and the change value of melting temperature (Δ Tm) was obtained by subtracting the Tm of DMSO solvent control group.

in vivo = details: male, Balb/c, mouse, po, 10 mg/kg
Procedure: 5 g of Hydroxyethyl cellulose (HEC, CMC-Na, viscosity: 800-1200 Cps) was weighed, dissolved in 1000 mL of purified water, and 10 g of Tween 80 was added. The mixture was mixed well to form a clear solution.
The embodiment compounds were weighed and added into 4-mL glass bottles, respectively, 2.4 mL of the solution was added, and ultrasound was performed for 10 minutes to obtain a colorless clear solution with a concentration of 1 mg/mL.
Balb/C mice, males; PO, after overnight fasting, respectively, at a dose of 10 mg/kg, administered in a volume of 10 mL/kg.
Blood samples were collected before administration and 0.083 h, 0.25 h, 0.5 h, 1 h, 2 h, 4 h, 6 h and 8 h after administration, the blood was placed in EDTA-2K tube, centrifuged at 4° C. 6000 rpm for 6 min to separate plasma, and stored at −80° C.; food was consumed 4 hours after drug administration.

[4] = tested on: Mia PaCa-2 cells (KRAS G12C mutant cell line); assay: Inhibition of Mia PaCa-2 cell proliferation (CellTiter-Glo, 72 h); type: cell-based, human; details: Homo sapiens
Source text: (§6) As a preferred embodiment of the present disclosure, the detection method of NCI-H358 cell proliferation inhibitory activity and Mia PaCa-2 cell proliferation inhibitory activity is as follows: through cell culture, adding different concentrations of compound solutions to the cultured cells, continuing the culture for a period of time and measuring the cell proliferation; • further, the method of cell culture is: adjusting the cells to a suitable cell concentration with complete medium and spreading the cell suspension in well plates for culture; preferably, the culture conditions are 37° C., 5% CO2 incubator overnight; preferably, the cell suspension is spread in 96-well plates, 48-well plates, 24-well plates, 12-well plates or 6-well plates, more preferably 96-well plates; preferably, the suitable cell concentration is 1500-4000 cells/well, with 90 μL of cell suspension added to each well; • further, the compound solution is prepared with DMSO and may be further diluted with medium; preferably, the compound solution has a concentration gradient starting from 100 μM at 4-fold dilution, more preferably starting from 30 μM at 4-fold dilution, most preferably starting from 10 μM at 4-fold dilution; • further, the volume of the compound solution or solvent added to each well is 1-10 μL, preferably 10 μL; • further, after adding the compound solution, the conditions for continuing the culture are 37° C., 5% CO2 incubator; preferably, the culture time is 24-72 h, more preferably 72 h; • further, the method for measuring cell proliferation is MTT, CCK8, CellTiter-Glo; preferably the method is CellTiter-Glo; • further, the cell proliferation is read using a microplate reader, more preferably a BioTek Synergy H1 microplate reader.
(§7) When NCI-H358 or Mia PaCa-2 cells were cultured to the appropriate fusion level, the NCI-H358 or Mia PaCa-2 cells were collected, and the cells were adjusted to the appropriate cell concentration using a complete medium, and the cell suspension was spread in a 96-well plate, 90 μL per well, and placed in a 37° C., 5% CO2 incubator overnight; and compound solutions of different concentrations were prepared using DMSO and culture medium; and a solvent control was set, the compound solution was added to a 96-well plate, 10 μL per well, at 37° C. in a 5% CO2 incubator for 72 hours; CellTiter-Glo solution was added thereto and the mixture was mixed well by shaking, incubated for 10 min in the dark, and read by BioTek Synergy H1 microplate reader.
(§8) The luminescence signal values were used to calculate the inhibition rate, the concentration and the inhibition rate were fitted to a nonlinear regression curve using Graphpad Prism software, then the IC50 value was obtained.

[5] = tested on: NCI-H358 cells (KRAS G12C mutant cell line); assay: Inhibition of NCI-H358 cell proliferation (CellTiter-Glo, 72 h); type: cell-based, human; details: Homo sapiens
Source text: as §6, §7, §8

Compound: CC[C@H](C)C(=O)O[C@H]1C[C@@H](C)C=C2C=C[C@H](C)[C@H](CC[C@@H]3C[C@@H](O)CC(=O)O3)[C@H]21 [Lovastatin, reference compound]
- t1/2 [1]: 80.22 min
- Residual rate (%) 0 min [1]: 100.00%
- Residual rate (%) 15 min [1]: 95.25%
- Residual rate (%) 30 min [1]: 95.45%
- Residual rate (%) 60 min [1]: 75.66%
- Residual rate (%) 120 min [1]: 36.25%
- t1/2 [2]: 6.69 min
- Residual rate (%) 0 min [2]: 100.00%
- Residual rate (%) 15 min [2]: 21.15%
- Residual rate (%) 30 min [2]: 1.77%
- Residual rate (%) 60 min [2]: 0.36%
- Residual rate (%) 120 min [2]: 0.30%

Compound: C=CC(=O)N1CCN(c2nc(=O)n(-c3c(C)ccnc3C(C)C)c3nc(-c4c(O)cccc4F)c(F)cc23)[C@@H](C)C1 [AMG-510, reference compound]
- TGI (%) Day 15 ([3]; Day 15, 10 mpk oral once a day): 38.02%
- tumor volume (mm^3, Mean ± SD) Day 15 ([3]; Day 15, 10 mpk oral once a day): 324 ± 204 mm^3
- ΔT/ΔC(%) Day 15 ([3]; Day 15, 10 mpk oral once a day): 61.98%
- tumor volume (mm^3, Mean ± SD) Day 0 ([3]; baseline Day 0, 10 mpk oral once a day): 202 ± 72 mm^3

Compound: C=CC(=O)N1CCN(c2nc(=O)n(-c3c(C)ccnc3C(C)C)c3nc(-c4c(O)cccc4F)c(F)cc23)[C@@H](C)C1 [AMG 510, reference compound]
- Residual rate (%) 0 min [1]: 100.00%
- Residual rate (%) 15 min [1]: 98.88%
- Residual rate (%) 30 min [1]: 101.14%
- Residual rate (%) 60 min [1]: 93.43%
- Residual rate (%) 120 min [1]: 91.92%
- Residual rate (%) 0 min (in vitro; human, 0.5 μM): 100.00%
- Residual rate (%) 15 min (in vitro; human, 0.5 μM): 93.77%
- Residual rate (%) 30 min (in vitro; human, 0.5 μM): 85.72%
- Residual rate (%) 60 min (in vitro; human, 0.5 μM): 82.51%
- Residual rate (%) 120 min (in vitro; human, 0.5 μM): 64.44%
- Residual rate (%) 0 min (in vitro; mouse plasma, 37° C.): 100.00%
- Residual rate (%) 15 min (in vitro; mouse plasma, 37° C.): 97.50%
- Residual rate (%) 30 min (in vitro; mouse plasma, 37° C.): 82.58%
- Residual rate (%) 60 min (in vitro; mouse plasma, 37° C.): 81.82%
- Residual rate (%) 120 min (in vitro; mouse plasma, 37° C.): 63.23%
- Residual rate (%) 0 min [2]: 100.00%
- Residual rate (%) 15 min [2]: 100.85%
- Residual rate (%) 30 min [2]: 93.03%
- Residual rate (%) 60 min [2]: 77.54%
- Residual rate (%) 120 min [2]: 56.77%

Compound: C=CC(=O)N1C[C@H](C)N(c2nc(=O)n(-c3c(SC)ccnc3C(C)C)c3nc(-c4c(O)cccc4F)c(F)cc23)C[C@H]1C [Embodiment 114, 4-((2S, 5R)-4-acryloyl-2,5-dimethylpiperazin-1-yl)-6-fluoro-7-(2-fluoro-6-hydroxyphenyl)-1-(2-isopropyl-4-(methylthio)pyridin-3-yl) pyrido [2,3-d] pyrimidin-2 (1H)-one]
- Tm (° C.) (human KRAS G12C protein; KRAS G12C protein 5.37 μM with compound 10 μM, 1 hour incubation): 57.2 °C
- ΔTm at 10 µM (human KRAS G12C protein; compound 10 μM, Tm minus Tm of DMSO solvent control): 8.5 °C
- AUC(0-inf) (in vivo): 1290 ng·h/mL
- Cmax (in vivo): 1530 ng/mL
- MRT (in vivo): 42 min
- Tmax (in vivo): 15 min
- half-life (in vivo): 36 min
- IC50 [4]: 43 nM
- IC50 [5]: 50 nM
